Source: patent US7709457B2, “Methods and compositions for delivery of pharmaceutical agents” (Genecure Pte Ltd., priority 1999, dated 2010)

How the values were obtained:
MB49 cells [1] = experiment: Nuclear and cytoplasmic accumulation of plasmid DNA by PCR; assay type: cell-based, murine; details: nuclear and cytoplasmic extracts
Experimental: Nuclear and cytoplasmic fractionation of transfected cells was carried out using gentle lysis with TNE buffer (10 mM Tris, pH (pH8), 1 mM EDTA, 100 mM NaCl, 1% Igepecal) and left on ice for 10 min followed by centrifugation at 7K for 5 min at 4° C. in a microfuge. The supernatant so produced was labelled the cytoplasmic extract and was transferred to a fresh tube. The nuclear extract were prepared by treatment with a proteinase K digestion (100 mM, NaCl, 10 Mm Tris, pH8, 0.5% SDS 25 mM EDTA and 0.1 mg/ml proteinase K) of the pelleted material overnight at 50° C. Nuclear DNA was extracted with phenol/chloroform twice followed by ethanol precipitation. PCR analysis was carried out as described above.
To determine the localization of DNA following transfection with DOTAP and DMBC, nuclear and cytoplasmic extracts were prepared from transfected cells. The presence of DNA in these extracts was determined using PCR. […] The GADPH gene was used to confirm the presence of nuclear DNA in nuclear extracts and the lack of contamination of cytoplasmic fractions with nuclear DNA.

MB49 cells [2] = experiment: Proliferation assay ([14C]-thymidine incorporation), toxicity of transfection agents; assay type: cell-based, murine
Experimental: Proliferation was assayed by measuring [^14C]-thymidine incorporation. 1×10^4 cells were plated per well in a 96 well flat-bottomed tissue culture plate (Nunc, Rosklide, Denmark) and transfected at optimal conditions as described above for the appropriate length of time (2 h and 24 h exposure), washed and incubated with fresh RPMI 1640 at 37° C. After 32 h, supernatants were removed, and cells were rinsed with 1×PBS. Triplicate wells were incubated with […], [^14]-thymidine (specific activity 56.5 mCi/mmol; Du Pont, Wilmington, Del., USA) for 16 h. The samples were harvested as described in Zhang, Y. et al. (1997) Int. J. Cancer 71:851-7. [^14C]-thymidine incorporation was expressed as a percentage of the incorporation in control cells, which consisted of untransfected cells. The non-parametric Mann-Whitney U test was used to calculate statistical significance. Probability values of p<0.05 were considered statistically significant.
A cell proliferation assay was used to gauge the toxicity of the transfection agents. Relative toxicity was measured by comparing proliferation in transfected and untransfected cells, 48 h after plating. Cells were exposed to the transfection agents for 2 h and 24 h.

[3] = test system: urothelial cells of the bladder; experiment: Transfection of murine bladders by intravesical instillation
Experimental: 5-7 week old-female C57BL6 mice were anaesthetized; their bladders were catheterized with 24 G i.v. catheter and flushed with 1×PBS. The DMBC and DNA complex were mixed for 15 min as described above. The final mix was made up to a final volume of 465 μl with 1×PBS for easy instillation and introduced intravesically. Transfection exposure times of 15 min, 30 min, 1 h or 2 h were evaluated. At different time points the bladders were flushed with 1×PBS to remove DNA/DMBC complex. The mice were sacrificed 48 h after treatment. Experiments were done in duplicates.
Cryostat sections of 6 μM in thickness were fixed in 1.25% glutaraldehyde for 10 min at 4° C. followed by incubation with X-gal for 4 h at 37° C. and were counterstained with haematoxylin.

MB49 cells [4] = experiment: In vitro transfection efficiency of pCMVlacZ, X-gal staining; assay type: cell-based, murine
human tumor xenografts = details: used by itself; cited from earlier work

1,2-diacyl-3-trimethylammonium propane [DOTAP]
localization of LacZ plasmid DNA (MB49 cells [1]): only found to be in the cytoplasm | 14C-thymidine incorporation, transfected vs untransfected cells (MB49 cells [2]; 2 h exposure): no difference | cell proliferative capacity vs untransfected cells (MB49 cells [2]; 24 h exposure): reduction in cell proliferative capacity but this was not statistically significant | structure of bladder cells facing the lumen by transmission electron microscopy ([3]; 2 h transfection exposure, vs untransfected control bladder): did not result in any discernible structural difference | transfection of bladder epithelial cells facing the lumen ([3]; intravesical instillation, mice): did not result in efficient transfection

[Ca+2].[Cl-].[Cl-] [Calcium chloride]
ability to transfect MB49 cells (MB49 cells [4]; MB49 cells, pCMVlacZ, 2 h): Neither calcium chloride (0-40 μg) nor DEAE-Dextran (0-2 μg) nor naked DNA could transfect MB49 cells | Transfection efficiency (MB49 cells [4]; MB49 cells, pCMVlacZ, 2 h, percentage of cells stained blue with X-gal): 0%

methyl-β-cyclodextrin
transfection with cyclodextrin lacking cholesterol (MB49 cells [4]; methyl-β-cyclodextrin by itself in combination with DOTAP and DNA, murine bladder epithelial cells): no transfection of murine bladder epithelial cells | anti-tumor effect (human tumor xenografts): had an anti-tumor effect
